Data reported in patent US20050192279A1, “Pyridazinones as antagonists of alpha4 integrins” (priority 2004, published 2005).
Read-outs that look alike come from different tables or passages of the source.

Tests used:
[1] = molecular target: T1, α4β1 (Homo sapiens, UniProt P05556+P13612); experiment: Ramos Cell Adhesion Assay (α4β1 Mediated Adhesion/VCAM-1); type: cell-based
T1 construct: Ramos Cell Adhesion Assay (α4β1 Mediated Adhesion/VCAM-1); endogenous in cells; host or cells: Ramos cells
Outline: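 Plates coated overnight at 4° C with recombinant hVCAM-1 at 4.0 μg/mL, pH 9.0, then blocked in PBS/1% BSA. Calcein AM-labeled Ramos cells added with compounds and left to adhere 1 h at room temperature; after washing, cells lysed in 1 M Tris pH 8.0/1% SDS.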

[2] = molecular target: T2, human α4β7 integrin (Homo sapiens, UniProt P13612+P26010); experiment: α4β7-K562 Cell Adhesion Assay (α4β7 Mediated Adhesion/MAdCAM-1); type: cell-based
T2 construct: expressed in transfected cells; host or cells: K562 cells, stably transfected
T2 sequence (P13612 34-1032): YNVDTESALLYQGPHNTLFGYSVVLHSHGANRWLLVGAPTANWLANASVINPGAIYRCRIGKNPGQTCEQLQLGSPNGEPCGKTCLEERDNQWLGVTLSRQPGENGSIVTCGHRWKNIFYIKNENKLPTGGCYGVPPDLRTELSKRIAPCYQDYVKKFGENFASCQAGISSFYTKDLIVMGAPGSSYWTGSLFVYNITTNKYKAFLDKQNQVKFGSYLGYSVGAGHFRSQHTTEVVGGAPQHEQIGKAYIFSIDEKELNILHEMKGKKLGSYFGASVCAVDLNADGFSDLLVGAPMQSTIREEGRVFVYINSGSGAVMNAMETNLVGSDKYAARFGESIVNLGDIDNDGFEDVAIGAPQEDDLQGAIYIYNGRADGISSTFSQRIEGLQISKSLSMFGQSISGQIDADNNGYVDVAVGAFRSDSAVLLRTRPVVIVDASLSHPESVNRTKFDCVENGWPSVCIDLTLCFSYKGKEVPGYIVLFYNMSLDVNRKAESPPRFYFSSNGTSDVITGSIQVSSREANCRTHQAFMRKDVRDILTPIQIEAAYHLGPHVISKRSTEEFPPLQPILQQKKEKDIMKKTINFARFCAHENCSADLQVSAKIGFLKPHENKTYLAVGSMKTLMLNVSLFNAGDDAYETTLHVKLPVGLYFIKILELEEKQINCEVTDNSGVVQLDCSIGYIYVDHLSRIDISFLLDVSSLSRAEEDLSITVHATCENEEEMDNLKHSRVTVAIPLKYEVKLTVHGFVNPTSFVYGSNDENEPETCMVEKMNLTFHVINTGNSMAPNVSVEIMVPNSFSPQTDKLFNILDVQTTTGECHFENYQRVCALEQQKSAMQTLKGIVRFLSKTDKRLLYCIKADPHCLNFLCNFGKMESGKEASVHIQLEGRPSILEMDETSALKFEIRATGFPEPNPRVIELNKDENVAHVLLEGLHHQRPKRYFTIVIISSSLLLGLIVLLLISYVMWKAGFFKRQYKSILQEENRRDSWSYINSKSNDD
T2 sequence (P26010 20-798): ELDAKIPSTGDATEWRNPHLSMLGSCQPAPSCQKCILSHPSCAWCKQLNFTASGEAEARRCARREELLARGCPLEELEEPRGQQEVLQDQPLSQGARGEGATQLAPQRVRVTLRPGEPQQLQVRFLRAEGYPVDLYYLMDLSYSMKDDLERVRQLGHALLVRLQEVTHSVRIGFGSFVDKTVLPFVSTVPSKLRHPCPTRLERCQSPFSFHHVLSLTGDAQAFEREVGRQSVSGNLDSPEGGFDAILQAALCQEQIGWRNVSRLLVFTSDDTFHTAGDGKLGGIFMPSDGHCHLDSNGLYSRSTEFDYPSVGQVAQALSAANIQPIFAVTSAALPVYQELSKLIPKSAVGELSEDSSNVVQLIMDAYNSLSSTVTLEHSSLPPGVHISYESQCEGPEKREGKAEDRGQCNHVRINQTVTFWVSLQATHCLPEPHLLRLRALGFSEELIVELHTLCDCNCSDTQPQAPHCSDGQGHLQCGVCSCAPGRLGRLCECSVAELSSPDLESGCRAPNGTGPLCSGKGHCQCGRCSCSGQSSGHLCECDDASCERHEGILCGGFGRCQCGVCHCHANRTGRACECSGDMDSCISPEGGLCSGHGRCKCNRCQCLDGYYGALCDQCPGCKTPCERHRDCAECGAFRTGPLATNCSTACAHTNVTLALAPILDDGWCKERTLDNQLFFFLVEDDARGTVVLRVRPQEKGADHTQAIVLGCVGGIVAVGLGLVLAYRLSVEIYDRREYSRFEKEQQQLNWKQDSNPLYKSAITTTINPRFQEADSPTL
Outline: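 Anti-FLAG plates coated 1 h at 4° C with FLAG-hMAdCAM-1 in PBS pH 7.4, 1% BSA, 1 mM Mn2+. Stably transfected K562 cells expressing human α4β7, labelled with CFDA-SE, adhered with compound 1 h at room temperature. After four washes, bound cells lysed in 0.1 M NaOH for fluorescence read-out.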

[3] = Ramos cell adhesion to hVCAM-1, read-out: α4β1 IC50
[4] = α4β7-K562 cell adhesion to hMAdCAM-1, read-out: α4β7 IC50

T1 sequence (P05556 21-798, one chain of several): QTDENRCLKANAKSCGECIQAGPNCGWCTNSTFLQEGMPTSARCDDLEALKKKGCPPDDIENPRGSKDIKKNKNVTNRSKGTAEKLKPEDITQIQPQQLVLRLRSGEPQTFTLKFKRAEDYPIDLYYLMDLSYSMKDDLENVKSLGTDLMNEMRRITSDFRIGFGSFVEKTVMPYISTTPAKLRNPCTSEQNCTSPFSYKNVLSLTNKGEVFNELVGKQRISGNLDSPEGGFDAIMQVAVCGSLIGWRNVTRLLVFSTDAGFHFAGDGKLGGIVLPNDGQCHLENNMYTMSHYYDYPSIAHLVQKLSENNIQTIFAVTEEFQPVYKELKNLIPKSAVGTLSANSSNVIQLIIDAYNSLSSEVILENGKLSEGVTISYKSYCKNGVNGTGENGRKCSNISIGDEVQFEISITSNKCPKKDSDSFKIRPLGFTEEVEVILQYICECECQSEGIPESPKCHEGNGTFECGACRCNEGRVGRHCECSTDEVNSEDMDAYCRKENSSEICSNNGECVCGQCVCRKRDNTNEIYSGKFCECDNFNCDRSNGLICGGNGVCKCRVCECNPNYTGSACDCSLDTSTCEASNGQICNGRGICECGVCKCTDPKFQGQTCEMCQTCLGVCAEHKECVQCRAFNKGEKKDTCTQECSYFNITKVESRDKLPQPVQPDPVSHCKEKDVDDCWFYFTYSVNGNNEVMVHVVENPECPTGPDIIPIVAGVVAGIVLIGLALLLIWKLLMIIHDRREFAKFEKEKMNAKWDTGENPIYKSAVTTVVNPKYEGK

| IC50 [1, 3] [nM] | IC50 [2, 4] [nM] | SMILES | IC50 ([1]; α4β1 IC50, Ramos cell adhesion to hVCAM-1) [nM] | IC50 ([2]; α4β7 IC50, α4β7-K562 cell adhesion to hMAdCAM-1) [nM] |
| --- | --- | --- | --- | --- |
| 1530 | 842 | COc1cnn(C)c(=O)c1-c1ccc(C[C@H](NC(=O)C2(C(=O)OC(C)(C)C)CCOCC2)C(=O)O)cc1 [Cpd 186] |  |  |
| 248 | 3 | CN1CCC(Oc2cnn(CCO)c(=O)c2-c2ccc(C[C@H](NC(=O)c3c(Cl)cccc3Cl)C(=O)O)cc2)CC1 [Cpd 23] |  |  |
| > 5000 | 2320 | COc1cnn(C)c(=O)c1-c1ccc(C[C@H](NC(=O)c2cnc[nH]2)C(=O)O)cc1 [Cpd 205] |  |  |
| > 5000 | 2760 | COc1cnn(C)c(=O)c1-c1ccc(C[C@H](NC(=O)OC2CCCCC2)C(=O)O)cc1 [Cpd 208] |  |  |
| > 5000 | 380 | CNC(C)(C)C(=O)N[C@@H](Cc1ccc(-c2c(OC)cnn(C)c2=O)cc1)C(=O)O [Cpd 221] |  |  |
| 1220 | 18 | COc1cnn(C)c(=O)c1-c1ccc(C[C@H](NC(=O)C(c2ccccc2)C(C)C)C(=O)O)cc1 (mixture of isomers) [Cpd 57] |  |  |
| 3840 | 248 | COc1cnn(C)c(=O)c1-c1ccc(C[C@H](NC(=O)C2(NC3CCCCC3)CCOCC2)C(=O)O)cc1 [Cpd 98] |  |  |
| > 5000 | 263 | COc1cnn(C)c(=O)c1-c1ccc(C[C@H](NC(=O)C(C)(C)NC2CCC3(CC2)OCCO3)C(=O)O)cc1 [Cpd 220] |  |  |
| 1160 | 179 | COc1cnn(C)c(=O)c1-c1ccc(C[C@H](NC(=O)C2C(C)(C)C2(C)C)C(=O)O)cc1 [Cpd 136, (S)-3-[4-(5-Methoxy-2-methyl-3-oxo-2,3-dihydro-pyridazin-4-yl)-phenyl]-2-[(2,2,3,3-tetramethyl-cyclopropanecarbonyl)-amino]-propionic acid] |  |  |
| 113 | 16 | Cn1ncc(N2CCCC2)c(-c2ccc(C[C@H](NC(=O)c3c(Cl)cccc3Cl)C(=O)O)cc2)c1=O [Cpd 51] |  |  |
|  |  | Cn1ncc(NCCCl)c(-c2ccc(C[C@H](NC(=O)c3c(Cl)cccc3Cl)C(=O)O)cc2)c1=O [Cpd 162] | > 5000 | 408 |
| 133 | 5 | Cn1ncc(OCc2cccnc2)c(-c2ccc(C[C@H](NC(=O)c3c(Cl)cccc3Cl)C(=O)O)cc2)c1=O [Cpd 25] |  |  |
| 142 | 118 | COc1cnn(C)c(=O)c1-c1ccc(C[C@H](NC(=O)C23CCC(CC2)CN3C(=O)CCc2cnc[nH]2)C(=O)O)cc1 [Cpd 122] |  |  |
| > 1000 | 141 | COc1cnn(C)c(=O)c1-c1ccc(C[C@H](NC(=O)[C@H](O)C(C)C)C(=O)O)cc1 [Cpd 129] |  |  |
| > 5000 | 152 | O=C(N[C@@H](Cc1ccc(-c2c(-n3nccc3-c3cccs3)cnn(CCO)c2=O)cc1)C(=O)O)c1c(Cl)cccc1Cl [Cpd 131, (S)-2-(2,6-Dichloro-benzoylamino)-3-{4-[2-(2-hydroxy-ethyl)-3-oxo-5-(5-thiophen-2-yl-pyrazol-1-yl)-2,3-di hydro-pyridazin-4-yl]-phenyl}-propionic acid] |  |  |
| > 5000 | 1340 | COc1cnn(C)c(=O)c1-c1ccc(C[C@H](NC(=O)C2CCNCC2)C(=O)O)cc1 [Cpd 198] |  |  |
| 135 | 27 | CC(C)Oc1cnn(C)c(=O)c1-c1ccc(C[C@H](NC(=O)c2c(Cl)cccc2Cl)C(=O)O)cc1 [Cpd 74] |  |  |

| IC50 [1, 3] [nM] | IC50 [2, 4] [nM] | SMILES | IC50 ([1]; α4β1 IC50, Ramos cell adhesion to hVCAM-1) [nM] | IC50 ([2]; α4β7 IC50, α4β7-K562 cell adhesion to hMAdCAM-1) [nM] |
| --- | --- | --- | --- | --- |
| > 5000 | 219 | COc1cnn(C)c(=O)c1-c1ccc(C[C@H](NC(=O)C2(NC(C)=O)CC2)C(=O)O)cc1 [Cpd 227] |  |  |
| 472 | 13 | COc1cnn(C)c(=O)c1-c1ccc(C[C@H](NC(=O)C2(NC3CCCC3)CC2)C(=O)O)cc1 [Cpd 225] |  |  |
| > 1000 | 332 | CN(C)c1cnn(C(C)(C)C)c(=O)c1-c1ccc(C[C@H](NC(=O)c2c(Cl)cccc2Cl)C(=O)O)cc1 [Cpd 155] |  |  |
| 588 | 10 | COc1cnn(CC(F)(F)F)c(=O)c1-c1ccc(C[C@H](NC(=O)c2c(Cl)cccc2Cl)C(=O)O)cc1 [Cpd 39] |  |  |
| > 5000 | 1780 | COc1cnn(C)c(=O)c1-c1ccc(C[C@H](NC(=O)OCc2c(C)cc(C)cc2C)C(=O)O)cc1 [Cpd 203] |  |  |
| 611 | 364 | CC(C)(C)n1ncc(-n2cncn2)c(-c2ccc(C[C@H](NC(=O)c3c(Cl)cccc3Cl)C(=O)O)cc2)c1=O [Cpd 160] |  |  |
| > 5000 | 731 | COc1cnn(C)c(=O)c1-c1ccc(C[C@H](NC(=O)OC23CC4CC(CC(C4)C2)C3)C(=O)O)cc1 [Cpd 180] |  |  |
| 130 | 2 | Cn1nc2c(c(-c3ccc(C[C@H](NC(=O)c4c(Cl)cccc4Cl)C(=O)O)cc3)c1=O)NCCO2 [Cpd 13, (S)-2-(2,6-Dichloro-benzoylamino)-3-[4-(2-methyl-3-oxo-3,5,6,7-tetrahydro-2H-pyridazino[3,4-b][1,4]oxazin-4-yl)-phenyl]-propionic acid] |  |  |
| 303 | 2 | Cn1ncc(OCCO)c(-c2ccc(C[C@H](NC(=O)c3c(Cl)cccc3Cl)C(=O)O)cc2)c1=O [Cpd 8] |  |  |
| > 5000 | 750 | COc1cnn(C)c(=O)c1-c1ccc(CC(NC(=O)C(N)C(C)C)C(=O)O)cc1 (centres unmarked) [Cpd 181, 2-(2-Amino-3-methyl-butyrylamino)-3-[4-(5-methoxy-2-methyl-3-oxo-2,3-dihydro-pyridazin-4-yl)-phenyl]-propionic acid] |  |  |
| > 5000 | 478 | COc1cnn(C)c(=O)c1-c1ccc(CC(NC(=O)C2CCCN2)C(=O)O)cc1 (mixture of isomers) [Cpd 166] |  |  |
| > 5000 | 339 | CNc1cnn(C)c(=O)c1-c1ccc(C[C@H](NC(=O)c2c(Cl)cccc2Cl)C(=O)O)cc1 [Cpd 156] |  |  |
| > 5000 | 570 | COc1cnn(C)c(=O)c1-c1ccc(C[C@H](NC(=O)OCc2ccccc2)C(=O)O)cc1 [Cpd 172, (S)-2-Benzyloxycarbonylamino-3-[4-(5-methoxy-2-methyl-3-oxo-2,3-dihydro-pyridazin-4-yl)-phenyl]-propionic acid] |  |  |
| > 1000 | 785 | COC(=O)[C@H](Cc1ccc(-c2c(OC)cnn(C)c2=O)cc1)NC(=O)[C@@H]1C2CCC(CC2)N1C(=O)CCc1ccccc1 [Cpd 182] |  |  |
| 794 | 42 | COc1cnn(C(C)(C)C)c(=O)c1-c1ccc(C[C@H](NC(=O)c2c(Cl)cccc2Cl)C(=O)O)cc1 [Cpd 85] |  |  |
| 65 | 3 | Cn1ncc(OCCN2CCOCC2)c(-c2ccc(C[C@H](NC(=O)c3c(Cl)cccc3Cl)C(=O)O)cc2)c1=O [Cpd 21] |  |  |
| > 5000 | 937 | COc1cnn(C)c(=O)c1-c1ccc(C[C@H](NC(=O)[C@@H](NC2CCCCC2)C(C)C)C(=O)O)cc1 [Cpd 189] |  |  |
